Reference: US6703229B2, “Aryl propenal double bond reductase” (Washington State University Research Foundation, priority 2000, dated 2004)

Columns and labels:
[1] = molecular target: reverse transcriptase (Human immunodeficiency virus type 1 group M subtype B, UniProt P04585); conditions: cited from earlier work
[2] = test system: aryl propenal double bond reductase (SEQ ID NO:2); assay: Enzyme assay of recombinant aryl propenal double bond reductase (HPLC of products); assay type: biochemical, Pinus taeda; conditions: for reduction of the aryl propenal substrate by the recombinant reductase: recombinant enzyme expressed from SEQ ID NO:1, in the presence of [4R]-NADPH
Method: Enzyme assays—Each non-radioactive assay (250 μl) consisted of buffer (50 mM Tris-HCl, pH 8.0), substrate (12.5 mM in DMSO, 10 μl), NADPH (25 mM in H2O, 10 μl), and the enzyme preparation (30 μl containing 5 mM DTT). Controls were performed using either denatured enzyme (boiled 96° C., 10 min) or in absence of enzyme. After 1 hour incubation at 30° C. with shaking, the reaction mixture was extracted with EtOAc (500 μl×2) with the EtOAc solubles combined and evaporated to dryness in vacuo. The EtOAc solubles were dissolved in CH3CN (10 μl) and then in 3% AcOH (90 μl), and subjected to reverse-phase HPLC with UV detection (280 nm).
Radioactive assays were performed in the same way as the non-radioactive assay with the following exceptions: the reaction was initiated by addition of [4S-^3H] or [4R-^3H]NADPH (25 mM in H2O, 666.7 kBq 10 μl). The EtOAc solubles were reconstituted in CH3CN/H2O and subjected to reverse-phase HPLC as described above with 0.5 ml fractions collected and an aliquot (100 μl) of each removed for scintillation counting to determine the level of incorporation of ^3H into the products.
Reversed phase HPLC separation of substrates and products—Separation of dehydrodiconiferyl alcohol (DDC), dihydrodehydrodiconiferyl alcohol (DDDC), dehydrodiconiferyl aldehyde (DDCA), dihydrodehydrodiconiferyl aldehyde (DDDCA) coniferyl alcohol (CA), dihydroconiferyl alcohol (DCA), coniferyl aldehyde (CAL), and dihydroconiferyl aldehyde (DCAL) was carried out using a reverse-phase column (Symmetry Shield RP8, 3.9×150 mm, Waters) as follows: CH3CN-3% AcOH in H2O (1:9) from 0 to 5 min, then linear gradient to 1:3 between 5 to 30 min, and finally linear gradient to 100% CH3CN over 25 min, at a flow rate of 1 ml/min.

[3] = test system: cAMP-phosphodiesterase; conditions: cited from earlier work

## COc1cc(C[C@H]2C(=O)OC[C@@H]2Cc2ccc(OC)c(OC)c2)ccc1O [(−)-arctigenin]
[1]
  effectiveness against HIV (reverse transcriptase inhibitory activity): effective against HIV

## COc1cc(/C=C/C=O)ccc1O [coniferyl aldehyde]
[2]
  reduction of the aryl propenal substrate by the recombinant reductase: capable of reducing coniferyl aldehyde to dihydroconiferyl aldehyde

## COc1cc([C@@H]2Oc3c(OC)cc(/C=C/C=O)cc3[C@H]2CO)ccc1O [dehydrodiconiferyl aldehyde]
[2]
  reduction of the aryl propenal substrate by the recombinant reductase: regiospecifically reduce the double-bond

## COc1cc(C[C@H]2COC(=O)[C@@H]2Cc2ccc(O)c(OC)c2)ccc1O [matairesinol]
[3]
  inhibition of cAMP-phosphodiesterase: inhibit cAMP-phosphodiesterase

## CC(Cc1ccc(O)c(O)c1)C(C)Cc1ccc(O)c(O)c1 (stereo not shown) [nordihydroguaiaretic acid]
[1]
  effectiveness against HIV (reverse transcriptase inhibitory activity): effective against HIV

## (−)-trachelogenin
[1]
  effectiveness against HIV (reverse transcriptase inhibitory activity): effective against HIV

B1: aryl propenal double bond reductase (SEQ ID NO:2): Pinus taeda aryl propenal double bond reductase encoded by cDNA SEQ ID NO:1, expressed in E. coli (protein)
chain: MEQRVPNRELILVAYANEGPVTDSHLNIRETKLDLGSVGKDGSSGDVAVQNLWISVDPYLRQLMKESDDGLYLPSFPLNQAIRSILVGKVVASANPAFEVGDIVSGFYQVSEYAIVPRGDLMKIDTSVVKPSDYLGLLGMPALTAWAGFIIVGEPKPGDEVFVSAAAGSVGMLVGQLAKIKSCRVVGSAGSDQKVKLLKEFGFDDAFNYKCETDLDAALSRYFPRGIDIYFDNVGGRMLEAVLNHINMKARIPLCGMISQYNQEWKQRFGVRNLLNLVGKCAKMEGFMSGQYHHRMGEFFEEMTGYIKQGKIKYKEDVKVGLDSFLEAFNSMFTGENIGKPVIYLGPPLPK
[2]; expressed in E. coli, GST fusion removed
  enzymatic activity of the expressed reductase: enzymatically active
